Results published in patent US8257928B2, “Methods for predicting and treating tumors resistant to drug, immunotherapy and radiation” (The Regents of the University of California, priority 2008, dated 2012).
Entries after “also recorded” stand apart in the source; their conditions may differ.

Columns and labels:
Assay type in all cases: cell-based, human
HMT3522 S1 cells [1] = assay: Cell growth rates on culture plastics and 3D acinar morphogenesis in rBM; conditions: stable RNAi vs control shRNA
Description: For the comparison of cell growth rates, cells were seeded on culture plastics and the cell number was determined at indicated time points. Population doublings were calculated as In (cell number at day n/cell number at day 0)/ln 2. Data were shown as mean±SEM of triplicate experiments.
To illustrate the basal surfaces and the intercellular junctions of the polarized acinar structures, the cultures were directly fixed with 2% paraformaldehyde and then incubated with primary antibodies toward β4-integrin and β-catenin, followed by FITC-(green) or Texas red-(red) conjugated secondary antibodies, respectively. Phase contrast images or immunofluorescence images were taken using a scanning confocal laser (model 2000-MP, Bio-Rad Laboratories) attached to a fluorescence microscope (model Eclipse TE-300, Nikon).

HMT3522 T4-2 cells [2] = assay: Percent cell death in 2D monolayer, 3D rBM and reverted cultures (active caspase 3); conditions: for death sensitivity of cells cultured in 3D rBM: 3D rBM disorganized aggregates vs 2D monolayer; for death sensitivity of cells cultured in 3D rBM / death sensitivity of structurally reverted spheroids: TRAIL 1.0 μg/mL, Paclitaxel 20 μM; for death sensitivity of structurally reverted spheroids: reverted with tyrphostin AG 1478 in 3D rBM
Description: (§1) The oligonucleotides specifying the small hairpin RNAs (shRNAs) were subcloned from pSilencer-H1 into pLZRS-MFG-CMV-Neo-U6, a recombinant self-inactivating retroviral vector constructed from the backbone of an MFG provirus (Proc. Natl. Acad. Sci. USA 85:6460-6464 (1988); Proc. Natl. Acad. Sci. USA 90:3539-3543 (1993)), which directs the expression of shRNA under the control of the U6 promoter. Amphotropic retrovirus was produced in Phoenix ampho cells (provided by Professor G. Nolan, Stanford Medical Center) with packaging vectors pCgp and pVSVG to boost viral titer. S1 cells or T4-2 cells, maintained in monolayer cultures, were then spin infected with retrovirus carrying the various RNAi constructs and infected cell populations were selected using 300 μg/ml G418 (Invitrogen).
Non-neoplastic HMT3522 S1 breast epithelial cells or neoplastic HMT3522 T4-2 cells were embedded (8.5×10^5/ml) within reconstituted basement membrane (rBM) gel (Matrigcl, BD Biosciences) in chamber slides (Lab-Tek chamber slides, Nunc) according to the procedures described in U.S. Pat. No. 6,123,941 and Nat. Method. 4:359-365 (2007). […] Phenotypic reversion of HMT3522 T4-2 cells in three dimensional rBM cultures was performed using an epidermal growth factor receptor (EGFR) specific tyrosine kinase inhibitor tyrphostin AG 1478 (100 nM) (Calbiochem), as previously described (Proc. Natl. Acad. Sci. USA 95:14821-14826 (1998))
Apoptotic cell death of the breast epithelial cells cultured in three dimensional rBM was initiated by treatment with recombinant, purified human tumor necrosis factor-related apoptosis-inducing ligand (TRAIL) peptides (BIOMOL) or Paclitaxel (Sigma-Aldrich) as described (Cancer Cell 2:205-216 (2002)). DNA damage-induced cell death was initiated by ionizing radiation (IR) using a Mark I Cesium 137 irradiator (JL Shepherd & Associates).
(§2) Percent cell death induced by TRAIL or Paclitaxel was quantified using detection of active caspase 3 (Cell Signaling) by indirect immunofluorescence as described (J. Cell Biol. 163:1397-1407 (2003)). Percent cell death induced by IR was quantified using Live/Dead Viability/Cytotoxicity Assay (Molecular Probes). For both methods, cells were counterstained with 4′,6-diamidino-2-phenylindole (DAPI) to label cell nuclei present at different focal planes in the 3D architectures. Percent death was calculated as cells positive for ethidium bromide or active caspase 3 expressed as a percentage of the total number of cells scored by the nuclear staining.
Percent cell death induced by TRAIL was quantified using detection of active caspasc 3 as described in Example 4.

HMT3522 S1 cells [3] = assay: Percent cell death of 3D rBM acini (active caspase 3; Live/Dead assay for IR); conditions: stable N-CoR2 downregulation vs control cells, range of drug concentrations or IR doses
Description: as §1, with “(Invitrogen). […]” for “(Invitrogen).”
as §2, with “For both methods, cells were counterstained with 4′,6-diamidino-2-phenylindole (DAPI) to label cell nuclei present at different focal planes in the 3D architectures.” left out

N-CoR2 = assay: Immunoblot of N-CoR2 protein abundance in 2D, 3D and reverted cultures; conditions: T4-2 aggregates reverted into organized spheroids by EGFR inhibition, vs disorganized 3D aggregates
Description: For immunoblot analysis, cell colonies (S1 acini or T4-2 cellular aggregates) in 3D rBM were isolated using ice-cold PBS/EDTA. Total cell lysates from monolayered cells or isolated colonies were prepared in Laemmli lysing buffer containing protease inhibitors and immunoblot analysis was performed as described (Exp. Cell Res. 298:122-132 (2004)).

HMT3522 T4-2 cells [4] = assay: Phenotypic reversion in three dimensional rBM cultures; conditions: tyrphostin AG 1478 100 nM
Description: Non-neoplastic HMT3522 S1 breast epithelial cells or neoplastic HMT3522 T4-2 cells were embedded (8.5×10^5/ml) within reconstituted basement membrane (rBM) gel (Matrigcl, BD Biosciences) in chamber slides (Lab-Tek chamber slides, Nunc) according to the procedures described in U.S. Pat. No. 6,123,941 and Nat. Method. 4:359-365 (2007). The three dimensional cultures were maintained for 12 days before induction of cell death. Phenotypic reversion of HMT3522 T4-2 cells in three dimensional rBM cultures was performed using an epidermal growth factor receptor (EGFR) specific tyrosine kinase inhibitor tyrphostin AG 1478 (100 nM) (Calbiochem), as previously described (Proc. Natl. Acad. Sci. USA 95:14821-14826 (1998))

Molecule: N-CoR2 shRNA: retrovirally expressed small hairpin RNA, siRNA sequence 5′-AAGGGTATCATCACCGCTGTG-3′ (SEQ ID NO:1) for N-CoR2
- growth on culture plastics, integrity and polarization of acini in 3D rBM (HMT3522 S1 cells [1]): does not significantly alter
- increased resistance of reverted spheroidal structures to death stimuli (TRAIL, Paclitaxel) (HMT3522 T4-2 cells [2]; stable N-CoR2 downregulation, TRAIL 1.0 μg/mL or Paclitaxel 20 μM): completely reversed
- sensitivity of S1 acini to death stimuli (TRAIL, Paclitaxel, IR) (HMT3522 S1 cells [3]): much more sensitive

Molecule: COc1cc2ncnc(Nc3cccc(Cl)c3)c2cc1OC [tyrphostin AG 1478]
- protein abundance of N-CoR2 (N-CoR2): further increase in the protein abundance of N-CoR2
- phenotypic reversion of cellular aggregates in 3D rBM (HMT3522 T4-2 cells [4]): phenotypic reversion of the cellular aggregates into organized spheroid-like structures

Molecule: CC(=O)O[C@H]1C(=O)[C@@]2(C)[C@H]([C@H](OC(=O)c3ccccc3)[C@]3(O)C[C@H](OC(=O)[C@H](O)[C@@H](NC(=O)c4ccccc4)c4ccccc4)C(C)=C1C3(C)C)[C@]1(OC(C)=O)CO[C@@H]1C[C@@H]2O [Paclitaxel, reference compound]
- death sensitivity of cells cultured in 3D rBM (HMT3522 T4-2 cells [2]): decreased sensitivity
- death sensitivity of structurally reverted spheroids (HMT3522 T4-2 cells [2]): further decrease in the sensitivity

Molecule: HDAC3 shRNA: retrovirally expressed small hairpin RNA, siRNA sequence 5′-AAGATGCTGAACCATGCACCT-3′ (SEQ ID NO:2) for HDAC3
- sensitivity to the TRAIL treatment of N-CoR2-overexpressed cells (HMT3522 T4-2 cells [2]; HDAC3 simultaneously downregulated by retrovirus-mediated RNAi): restored to an extent comparable to that of vehicle-treated cells

Molecule: N-CoR2 (K449A): mutant N-CoR2 with lysine 449 mutated to alanine; binds HDAC3 but does not activate it
- sensitivity to death induction by TRAIL of cells transduced with the mutant (HMT3522 T4-2 cells [2]; T4-2 cells in rBM gel 5 days, vs vector control cells): hypersensitive to death induction to an extent even greater than that of the vector control cells

B1: TRAIL: recombinant, purified human tumor necrosis factor-related apoptosis-inducing ligand (TRAIL) peptides (BIOMOL) (protein, UniProt P50591 1-281, looked up)
Tumor necrosis factor ligand …: MAMMEVQGGPSLGQTCVLIVIFTVLLQSLCVAVTYVYFTNELKQMQDKYSKSGIACFLKEDDSYWDPNDEESMNSPCWQVKWQLRQLVRKMILRTSEETISTVQEKQQNISPLVRERGPQRVAAHITGTRGRSNTLSSPNSKNEKALGRKINSWESSRSGHSFLSNLHLRNGELVIHEKGFYYIYSQTYFRFQEEIKENTKNDKQMVQYIYKYTSYPDPILLMKSARNSCWSKDAEYGLYSIYQGGIFELKENDRIFVSVTNEHLIDMDHEASFFGAFLVG
- death sensitivity of cells cultured in 3D rBM (HMT3522 T4-2 cells [2]): decreased sensitivity
- death sensitivity of structurally reverted spheroids (HMT3522 T4-2 cells [2]): further decrease in the sensitivity
- death sensitivity of cells with stable overexpression of wild-type N-CoR2 (HMT3522 T4-2 cells [2]; vs vector control cells, 3D rBM): markedly resistant; also recorded: less sensitive
